The results in this text go back to patent US20150105252A1, “SUBSTITUTED PYRAZOLES AS HERBICIDES” (E I DU PONT DE NEMOURS AND COMPANY, priority 2013, published 2015).

Molecules are shown by their SMILES.

Assay [1] deals with corn. The assay can be described thus: Test A postemergence. Particulars: Postemergence, 1000 g ai/ha; visual rating after approx. 10 days, 0 to 100 scale (0 no effect, 100 complete control). The class given is in vivo, Zea mays. A digest of the protocol: (§1)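 Both timings tested concurrently in loam/sand soil: preemergence by directed soil spray, postemergence on plants of 2–10 cm at the one- to two-leaf stage. Greenhouse holding period was approximately 10 days before visual injury assessment (0–100, 0 = no effect).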

Assay [2] concerns foxtail, giant. Put plainly: Test A postemergence. Conditions: Postemergence, 1000 g ai/ha; visual rating after approx. 10 days, 0 to 100 scale (0 no effect, 100 complete control). It counts as in vivo, Setaria faberii. A digest of the protocol:
as §1

The subject of assay [3] is pigweed. Put plainly: Test A preemergence. It counts as in vivo, Amaranthus retroflexus. Conditions: Preemergence, 1000 g ai/ha; 0 to 100 scale, 0 no effect, 100 complete control. A digest of the protocol:
as §1

Assay [4] deals with wheat. Put plainly: Test A preemergence. It counts as in vivo, Triticum aestivum. Particulars: Preemergence, 1000 g ai/ha; 0 to 100 scale, 0 no effect, 100 complete control. In short, it runs like this: as §1
Assay [5] concerns morningglory. Put plainly: Test A preemergence. The class given is in vivo, Ipomoea spp. Conditions: Preemergence, 1000 g ai/ha; 0 to 100 scale, 0 no effect, 100 complete control. In short, it runs like this: as §1
Assay [6] has as its system barnyardgrass. The assay can be described thus: Test A preemergence. The class given is in vivo, Echinochloa crus-galli. Conditions: Preemergence, 1000 g ai/ha; 0 to 100 scale, 0 no effect, 100 complete control. In short, it runs like this:
as §1

Assay [7] deals with corn. Put plainly: Test A preemergence. The class given is in vivo, Zea mays. Conditions: Preemergence, 1000 g ai/ha; 0 to 100 scale, 0 no effect, 100 complete control. In short, it runs like this:
as §1

For assay [8], the system named is crabgrass, large. Put plainly: Test A postemergence. The class given is in vivo, Digitaria sanguinalis. Particulars: Postemergence, 1000 g ai/ha; visual rating after approx. 10 days, 0 to 100 scale (0 no effect, 100 complete control). In short, it runs like this:
as §1

Assay [9] relates to pigweed. The assay can be described thus: Test A postemergence. The class given is in vivo, Amaranthus retroflexus. Conditions: Postemergence, 1000 g ai/ha; visual rating after approx. 10 days, 0 to 100 scale (0 no effect, 100 complete control). A digest of the protocol: as §1
In assay [10] the test system is velvetleaf. The assay can be described thus: Test A preemergence. It counts as in vivo, Abutilon theophrasti. Particulars: Preemergence, 1000 g ai/ha; 0 to 100 scale, 0 no effect, 100 complete control. In short, it runs like this: as §1
Assay [11] has as its system morningglory. Put plainly: Test A postemergence. The class given is in vivo, Ipomoea spp. Particulars: Postemergence, 1000 g ai/ha; visual rating after approx. 10 days, 0 to 100 scale (0 no effect, 100 complete control). A digest of the protocol: as §1
Assay [12] deals with velvetleaf. The assay can be described thus: Test A postemergence. Particulars: Postemergence, 1000 g ai/ha; visual rating after approx. 10 days, 0 to 100 scale (0 no effect, 100 complete control). The class given is in vivo, Abutilon theophrasti. A digest of the protocol: as §1
For assay [13], the system named is crabgrass, large. Put plainly: Test A preemergence. Particulars: Preemergence, 1000 g ai/ha; 0 to 100 scale, 0 no effect, 100 complete control. The class given is in vivo, Digitaria sanguinalis. In short, it runs like this:
as §1

The subject of assay [14] is barnyardgrass. The assay can be described thus: Test A postemergence. The class given is in vivo, Echinochloa crus-galli. Conditions: Postemergence, 1000 g ai/ha; visual rating after approx. 10 days, 0 to 100 scale (0 no effect, 100 complete control). In short, it runs like this:
as §1

For assay [15], the system named is foxtail, giant. The assay can be described thus: Test A preemergence. It counts as in vivo, Setaria faberii. Conditions: Preemergence, 1000 g ai/ha; 0 to 100 scale, 0 no effect, 100 complete control. A digest of the protocol: as §1
Assay [16] has as its system wheat. Put plainly: Test A postemergence. It counts as in vivo, Triticum aestivum. Conditions: Postemergence, 1000 g ai/ha; visual rating after approx. 10 days, 0 to 100 scale (0 no effect, 100 complete control). In short, it runs like this:
as §1

As for `CCNC(=O)c1cc(SC)n(Cc2cccc(C(F)(F)F)c2)n1` [Compound 23], the “Corn plant response rating” value was 20 with corn [1] and 0 in the assay on corn [7]. Moreover, the “Foxtail, Giant plant response rating” value with foxtail, giant [2] came out at 30; in the assay on foxtail, giant [15], 0. In addition, the entries for the “Pigweed plant response rating” value in the assay on pigweed [3] and with pigweed [9] were 0 and 40, respectively. Also, the “Wheat plant response rating” value in the assay with wheat [4] and in the assay on wheat [16] was 0 each time. The “Morningglory plant response rating” value with morningglory [5] amounted to 0; with morningglory [11] it was 100. In addition, the entries for the “Barnyardgrass plant response rating” value in the assay on barnyardgrass [6] and with barnyardgrass [14] were 0 and 10, respectively. Further, the “Crabgrass, Large plant response rating” value with crabgrass, large [8] was 30; in the assay on crabgrass, large [13], 0. Further, the “Velvetleaf plant response rating” value in the assay on velvetleaf [10] amounted to 0; with velvetleaf [12], 30.
Consider `C=CCNC(=O)c1cc(CC)n(Cc2cccc(C(F)(F)F)c2)n1` [Compound 44], for which the “Corn plant response rating” value with corn [1] and in the assay on corn [7] was 20 in each case. Moreover, the “Foxtail, Giant plant response rating” value in the assay on foxtail, giant [2] is given as 50; in the assay on foxtail, giant [15], 50. Moreover, the entries for the “Pigweed plant response rating” value with pigweed [3] and in the assay with pigweed [9] were 10 and 50, respectively. The “Wheat plant response rating” value with wheat [4] was 0; in the assay on wheat [16], 20. Moreover, the entries for the “Morningglory plant response rating” value with morningglory [5] and with morningglory [11] were 20 and 70, respectively. In addition, the “Barnyardgrass plant response rating” value in the assay with barnyardgrass [6] and in the assay on barnyardgrass [14] was 10 throughout. The “Crabgrass, Large plant response rating” value in the assay on crabgrass, large [8] is reported as 20; in the assay on crabgrass, large [13], 50. The “Velvetleaf plant response rating” value in the assay on velvetleaf [10] came to 0; in the assay on velvetleaf [12], 40.
On to `CCc1cc(C(=O)NC)nn1Cc1cccc(C(F)(F)F)c1` [Compound 45], for which the results for the “Corn plant response rating” value in the assay with corn [1] and in the assay on corn [7] were 20 and 0, respectively. Further, the “Foxtail, Giant plant response rating” value stood at 70 in the assay on foxtail, giant [2] and 20 with foxtail, giant [15]. The “Pigweed plant response rating” value in the assay on pigweed [3] worked out at 10; with pigweed [9], 60. In addition, the “Wheat plant response rating” value in the assay with wheat [4] came to 0; with wheat [16], 10. Also, the “Morningglory plant response rating” value in the assay with morningglory [5] is listed as 10; in the assay on morningglory [11], 90. Also, the “Barnyardgrass plant response rating” value in the assay with barnyardgrass [6] and in the assay on barnyardgrass [14] was 10 in each case. The “Crabgrass, Large plant response rating” value with crabgrass, large [8] stood at 40; with crabgrass, large [13], 20. In addition, the entries for the “Velvetleaf plant response rating” value in the assay with velvetleaf [10] and with velvetleaf [12] were 0 and 30, respectively.
On to `CCc1cc(C(=O)NCC(C)(C)C)nn1Cc1cccc(C(F)(F)F)c1` [Compound 46], for which the “Corn plant response rating” value in the assay on corn [1] is 20; with corn [7], 0. Further, the “Foxtail, Giant plant response rating” value was found to be 60 with foxtail, giant [2] and 20 in the assay on foxtail, giant [15]. The entries for the “Pigweed plant response rating” value in the assay with pigweed [3] and with pigweed [9] were 0 and 40, respectively. The “Wheat plant response rating” value came out at 0 in the assay with wheat [4] and 20 in the assay with wheat [16]. For the same molecule, the entries for the “Morningglory plant response rating” value with morningglory [5] and with morningglory [11] were 20 and 70, respectively. In addition, the “Barnyardgrass plant response rating” value with barnyardgrass [6] and in the assay on barnyardgrass [14] was 10 each time. Moreover, the “Crabgrass, Large plant response rating” value with crabgrass, large [8] is recorded as 30; with crabgrass, large [13] it was 10. In addition, the “Velvetleaf plant response rating” value in the assay on velvetleaf [10] was 0; with velvetleaf [12] it was 70.
In the case of `CCc1cc(C(=O)NCCOC)nn1Cc1cccc(C(F)(F)F)c1` [Compound 48], the “Corn plant response rating” value in the assay with corn [1] was found to be 30; in the assay with corn [7], 0. Moreover, the “Foxtail, Giant plant response rating” value in the assay with foxtail, giant [2] stood at 20; in the assay with foxtail, giant [15] it was 10. In addition, the “Pigweed plant response rating” value was found to be 0 with pigweed [3] and 10 in the assay on pigweed [9]. Besides, the “Wheat plant response rating” value in the assay with wheat [4] and in the assay with wheat [16] was 0 in each case. The entries for the “Morningglory plant response rating” value in the assay on morningglory [5] and in the assay on morningglory [11] were 20 and 50, respectively. The “Barnyardgrass plant response rating” value with barnyardgrass [6] and in the assay on barnyardgrass [14] was 10 each time. Further, the “Crabgrass, Large plant response rating” value in the assay with crabgrass, large [8] is given as 10; in the assay on crabgrass, large [13], 10. Also, the “Velvetleaf plant response rating” value is recorded as 0 with velvetleaf [10] and 10 with velvetleaf [12].
As for `CCc1cc(C(=O)NCC(C)C)nn1Cc1cccc(C(F)(F)F)c1` [Compound 49], the “Corn plant response rating” value was 30 with corn [1] and 0 in the assay on corn [7]. Further, the “Foxtail, Giant plant response rating” value is on record as 100 in the assay with foxtail, giant [2] and 100 in the assay with foxtail, giant [15]. In addition, the “Pigweed plant response rating” value with pigweed [3] and in the assay on pigweed [9] was 50 throughout. The figures for the “Wheat plant response rating” value with wheat [4] and with wheat [16] were 0 and 30, respectively. Also, the “Morningglory plant response rating” value in the assay with morningglory [5] turned out to be 30; in the assay on morningglory [11] it was 100. Besides, the “Barnyardgrass plant response rating” value in the assay on barnyardgrass [6] was 30; with barnyardgrass [14], 20. Also, the “Crabgrass, Large plant response rating” value in the assay on crabgrass, large [8] is 30; in the assay on crabgrass, large [13] it was 90. Further, the “Velvetleaf plant response rating” value with velvetleaf [10] is 0; with velvetleaf [12] it was 50.
As to `CCCCNC(=O)c1cc(CC)n(Cc2cccc(C(F)(F)F)c2)n1` [Compound 52], the entries for the “Corn plant response rating” value with corn [1] and in the assay with corn [7] were 30 and 0, respectively. Besides, the “Foxtail, Giant plant response rating” value in the assay with foxtail, giant [2] turned out to be 30; in the assay on foxtail, giant [15] it was 70. In addition, the “Pigweed plant response rating” value is 30 in the assay on pigweed [3] and 50 in the assay on pigweed [9]. For the same molecule, the “Wheat plant response rating” value in the assay on wheat [4] was determined as 0; in the assay on wheat [16], 30. In addition, the “Morningglory plant response rating” value in the assay on morningglory [5] is listed as 30; in the assay on morningglory [11], 40. The “Barnyardgrass plant response rating” value with barnyardgrass [6] was determined as 10; in the assay with barnyardgrass [14], 20. Besides, the “Crabgrass, Large plant response rating” value in the assay with crabgrass, large [8] was found to be 30; in the assay on crabgrass, large [13], 50. In addition, the “Velvetleaf plant response rating” value in the assay on velvetleaf [10] was 10; in the assay on velvetleaf [12], 40.
`CCc1cc(C(=O)NCCC(F)(F)F)nn1Cc1cccc(OC(F)(F)F)c1` [Compound 55]: the entries for the “Corn plant response rating” value with corn [1] and in the assay on corn [7] were 20 and 0, respectively. For the same molecule, the “Foxtail, Giant plant response rating” value in the assay with foxtail, giant [2] was found to be 50; with foxtail, giant [15] it was 90. The figures for the “Pigweed plant response rating” value with pigweed [3] and with pigweed [9] were 80 and 70, respectively. For the same molecule, the entries for the “Wheat plant response rating” value with wheat [4] and in the assay on wheat [16] were 0 and 10, respectively. The “Morningglory plant response rating” value in the assay on morningglory [5] is listed as 20; with morningglory [11] it was 100. The “Barnyardgrass plant response rating” value with barnyardgrass [6] and in the assay on barnyardgrass [14] was 10 throughout. The “Crabgrass, Large plant response rating” value in the assay on crabgrass, large [8] was 50; in the assay on crabgrass, large [13] it was 100. In addition, the “Velvetleaf plant response rating” value with velvetleaf [10] is on record as 10; with velvetleaf [12], 90.
Take `CCc1cc(C(=O)N(C)C)nn1Cc1cccc(OC(F)(F)F)c1` [Compound 56]: the “Corn plant response rating” value in the assay on corn [1] was found to be 10; in the assay with corn [7] it was 0. For the same molecule, the “Foxtail, Giant plant response rating” value in the assay with foxtail, giant [2] is listed as 20; with foxtail, giant [15] it was 10. The “Pigweed plant response rating” value with pigweed [3] is on record as 0; in the assay with pigweed [9] it was 60. The “Wheat plant response rating” value with wheat [4] and with wheat [16] was 0 in each case. Further, the “Morningglory plant response rating” value with morningglory [5] came out at 0; with morningglory [11], 70. The “Barnyardgrass plant response rating” value with barnyardgrass [6] and in the assay on barnyardgrass [14] was 0 throughout. The “Crabgrass, Large plant response rating” value in the assay on crabgrass, large [8] is 10; with crabgrass, large [13] it was 0. Besides, the “Velvetleaf plant response rating” value with velvetleaf [10] is given as 0; with velvetleaf [12], 10.
